Measured values taken from patent publication US8178579B2, “Dioxanes and uses thereof” (President and Fellows of Harvard College, priority 2001, dated 2012).

Target: T1, HDAC6F H216A mutant (Homo sapiens, UniProt Q9UBN7, H216A)
T1 construct: made in house; host or cells: TAg Jurkat cells, transient transfection, anti-FLAG M2 immunoprecipitation
T1 sequence (Q9UBN7 1-1215 H216A): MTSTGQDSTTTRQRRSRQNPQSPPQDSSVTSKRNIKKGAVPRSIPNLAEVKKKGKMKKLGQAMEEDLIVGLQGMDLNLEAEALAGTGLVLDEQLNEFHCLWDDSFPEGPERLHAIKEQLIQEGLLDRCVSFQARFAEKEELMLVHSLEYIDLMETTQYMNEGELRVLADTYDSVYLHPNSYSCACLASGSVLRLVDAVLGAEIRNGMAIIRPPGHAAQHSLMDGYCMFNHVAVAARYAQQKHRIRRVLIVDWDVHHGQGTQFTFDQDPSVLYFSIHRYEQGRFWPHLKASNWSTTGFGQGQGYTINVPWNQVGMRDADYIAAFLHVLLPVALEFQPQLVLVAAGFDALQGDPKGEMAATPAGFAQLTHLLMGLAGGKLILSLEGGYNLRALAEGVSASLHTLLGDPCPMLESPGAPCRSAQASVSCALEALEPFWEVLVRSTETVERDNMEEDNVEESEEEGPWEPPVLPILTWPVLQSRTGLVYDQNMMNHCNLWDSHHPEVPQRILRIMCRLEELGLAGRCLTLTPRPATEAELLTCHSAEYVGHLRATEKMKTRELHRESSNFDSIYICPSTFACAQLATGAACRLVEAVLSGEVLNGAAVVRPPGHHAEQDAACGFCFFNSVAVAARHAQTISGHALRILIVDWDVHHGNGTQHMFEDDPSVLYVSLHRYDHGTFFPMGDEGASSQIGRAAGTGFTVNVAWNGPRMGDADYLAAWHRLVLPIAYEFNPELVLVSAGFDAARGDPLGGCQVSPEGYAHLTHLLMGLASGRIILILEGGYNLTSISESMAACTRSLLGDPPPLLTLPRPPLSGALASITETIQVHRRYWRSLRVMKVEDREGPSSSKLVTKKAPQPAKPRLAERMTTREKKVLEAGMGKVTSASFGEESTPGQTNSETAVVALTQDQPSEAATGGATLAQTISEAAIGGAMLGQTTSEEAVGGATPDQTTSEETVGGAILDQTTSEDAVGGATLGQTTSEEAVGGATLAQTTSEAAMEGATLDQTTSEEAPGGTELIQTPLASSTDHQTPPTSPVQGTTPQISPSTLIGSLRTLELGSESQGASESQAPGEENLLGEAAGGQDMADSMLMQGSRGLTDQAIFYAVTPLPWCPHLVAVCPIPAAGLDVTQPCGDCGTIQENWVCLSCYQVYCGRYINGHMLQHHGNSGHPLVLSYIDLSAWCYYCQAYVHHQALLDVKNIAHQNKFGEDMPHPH
Test: in vitro deacetylase assay with [3H]-histones, HDAC6F H216A mutant
Assay type: biochemical
Conditions: [3H]-labeled histones, n=3
Method: FLAG-tagged HDAC pBJ5 constructs were transiently transfected by electroporation with 5 μg DNA for expression of recombinant proteins (C. M. Grozinger, C. A. Hassig and S. L. Schreiber, Proc. Natl. Acad. Sci. USA, 27, 4868 (1999); and C. A. Hassig et al., Proc. Natl. Acad. Sci. USA 95, 3519 (1998)]. Cells were mock transfected without DNA or with a non-FLAG-tagged pCMV-LacZ construct as a negative control. Forty-eight hours after transfection recombinant proteins were immunoprecipitated using anti-FLAG M2 agarose affinity gel beads as described [C. A. Hassig et al., Proc. Natl. Acad. Sci. USA 95, 3519 (1998)]. Western blotting using anti-acetylated α-tubulin (1:1000) anti-tubulin (1:1000), and anti-acetylated (K9, K14) histone H3 (1:1000) antibodies was performed using standard methods (K. M. Koeller et al., Chemistry & Biology, 10 (5) (2003) pp. 397-410). […]
[^3H]Acetate-incorporated histones were isolated from butyrate-treated HeLa cells as described [J. Taunton, C. […] Immunoprecipitates were incubated with acetylated histones and HDAC activity determined by scintillation counting as described [J. Taunton, C. […] After centrifugation, the supernatant (diluted to 0.4 μg tubulin) and α-FLAG M2 agarose affinity gel beads were analyzed by western blotting with an anti-FLAG M2 antibody (1:1750) to ensure equal protein levels.

Row | Compound | inhibition of HDAC activity of HDAC6F H216A mutant
1 | CC(/C=C/C(=O)NO)=C\[C@@H](C)C(=O)c1ccc(N(C)C)cc1 [TSA, trichostatin A, reference compound] | only partial inhibited by TSA or tubacin
2 | O=C(CCCCCCC(=O)Nc1ccc([C@@H]2OC(c3ccc(CO)cc3)C[C@H](CSc3nc(-c4ccccc4)c(-c4ccccc4)o3)O2)cc1)NO (some centres unmarked) [tubacin] | only partial inhibited by TSA or tubacin
